Test results reported in ChEMBL document CHEMBL1148887, “Design and synthesis of benzoazepinone-derived cyclic malonamides and aminoamides as potent gamma-secretase inhibitors” (Bioorg Med Chem Lett, 2007).

Key:
Gamma-secretase [1] = assay: Inhibition of gamma secretase in APP-transfected CHO cells; assay type: cell-based, Homo sapiens
Gamma-secretase [2] = assay: Displacement of [3H]succinamide from gamma secretase in THP1 cell membranes; set-up: species or system Homo sapiens; settings: thp-1
[3] = Cmax in Beagle dog at 0.5 mg/kg, po; assay type: ADME, organism-based, Canis lupus familiaris; set-up: dose 0.5 mg/kg, route oral; settings: in vivo
[4] = Clearance in Beagle dog at 0.5 mg/kg, po; assay type: ADME, organism-based, Canis lupus familiaris; set-up: dose 0.5 mg/kg, route oral; settings: in vivo
[5] = Oral bioavailability in Beagle dog at 0.5 mg/kg, po; assay type: ADME, organism-based, Canis lupus familiaris; settings: in vivo
[6] = Half life in Beagle dog at 0.5 mg/kg, po; assay type: ADME, organism-based, Canis lupus familiaris; set-up: dose 0.5 mg/kg, route oral; settings: in vivo
Canis familiaris = assay: Volume of distribution at steady state in Beagle dog at 0.5 mg/kg, po; assay type: ADME, organism-based, Canis lupus familiaris; set-up: dose 0.5 mg/kg, route oral; settings: in vivo
[7] = Fraction unbound ligand in Beagle dog at 0.5 mg/kg, po; assay type: ADME, organism-based, Canis lupus familiaris; set-up: dose 0.5 mg/kg, route oral; settings: in vivo
Gamma-secretase [8] = assay: Inhibition of gamma secretase-mediated beta amyloid production in NIH3T3 cells; assay type: cell-based, Homo sapiens

Row | SMILES | IC50 (Gamma-secretase [1]) | Ki (Gamma-secretase [2]) | Cmax [3] | CL/F [4] | bioavailability [5] | half-life [6] | Vdss (Canis familiaris) | fraction unbound [7] | IC50 (Gamma-secretase [8])
1 | CN1C(=O)[C@@H](NC(=O)C2(C(=O)NCc3cc(F)cc(F)c3)CCC2)N=C(c2ccccc2)c2ccccc21 | 0.115 µM | 0.0135 µM | – | – | – | – | – | – | –
2 | CC(C)CCNC(=O)C1(C(=O)N[C@H]2N=C(c3ccc(C(F)(F)F)cc3)c3ccccc3N(C)C2=O)CCC1 | 0.014 µM | 0.0049 µM | 567 nM | 3.33 mL/min/kg | 61% | 13.2 h | 1.9 L/kg | 0.005 | –
3 | CCCCNC(=O)C1(C(=O)N[C@H]2N=C(c3ccccc3)c3ccccc3N(C)C2=O)CCC1 | 0.02 µM | 0.011 µM | – | – | – | – | – | – | –
4 | CC(C)CCNC(=O)C1(C(=O)N[C@@H]2C(=O)N(C)c3ccccc3-c3ccccc32)CCC1 | 0.015 µM | 0.004 µM | 172 nM | 3.33 mL/min/kg | 23% | 5.3 h | 0.9 L/kg | 0.005 | –
5 | CC(C)CNC(=O)C1(C(=O)N[C@@H]2C(=O)N(C)c3ccccc3-c3ccccc32)CCC1 | 0.0058 µM | 0.0014 µM | 184 nM | 8.33 mL/min/kg | 47% | 4.6 h | 2.1 L/kg | 0.001 | –
6 | CC(C)CNC(=O)C1(C(=O)N[C@H]2N=C(c3ccccc3)c3ccccc3N(C)C2=O)CCCC1 | 0.0195 µM | 0.0062 µM | – | – | – | – | – | – | –
7 | CN1C(=O)[C@@H](NC(=O)C2(C(=O)NCCC3CCCC3)CCC2)N=C(c2ccc(C(F)(F)F)cc2)c2ccccc21 | 0.013 µM | 0.0022 µM | – | – | – | – | – | – | –
8 | CC(C)CC(F)(F)NC(=O)C1(C(=O)N[C@@H]2C(=O)N(C)c3ccccc3-c3ccccc32)CCC1 | 0.28 µM | 0.022 µM | – | – | – | – | – | – | –
9 | CC(C)[C@H](O)NC(=O)C1(C(=O)N[C@@H]2C(=O)N(C)c3ccccc3-c3ccccc32)CCC1 | 0.015 µM | 0.0039 µM | – | – | – | – | – | – | –
10 | CC(C)C[C@H](O)NC(=O)C1(C(=O)N[C@H]2N=C(c3ccc(C(F)(F)F)cc3)c3ccccc3N(C)C2=O)CCC1 | 0.0061 µM | 0.0021 µM | 2980 nM | 0.667 mL/min/kg | 84% | 6.5 h | 0.2 L/kg | 0.017 | 0.0061 µM
11 | CC(C)C[C@H](O)NC(=O)C1(C(=O)N[C@@H]2C(=O)N(C)c3ccccc3-c3ccccc32)CCC1 | 0.0042 µM | 0.0009 µM | – | – | – | – | – | – | –
12 | CN1C(=O)[C@@H](NC(=O)C2(C(=O)NCCC3CCCC3)CCCC2)N=C(c2ccccc2)c2ccccc21 | – | 0.036 µM | – | – | – | – | – | – | –
13 | CN1C(=O)[C@@H](NC(=O)C2(C(=O)NCc3cc(F)cc(F)c3)CCCC2)N=C(c2ccccc2)c2ccccc21 | 0.096 µM | 0.0099 µM | – | – | – | – | – | – | –
14 | CN1C(=O)[C@@H](NC(=O)C2(C(=O)N[C@H](O)C3CCCCC3)CCC2)N=C(c2ccc(C(F)(F)F)cc2)c2ccccc21 | 0.28 µM | 0.111 µM | – | – | – | – | – | – | –
15 | CN1C(=O)[C@@H](NC(=O)C2(C(=O)N[C@@H](O)C3CCCCC3)CCC2)N=C(c2ccc(C(F)(F)F)cc2)c2ccccc21 | 0.011 µM | 0.0031 µM | – | – | – | – | – | – | –
16 | CN1C(=O)[C@@H](NC(=O)C2(C(=O)NCc3cccs3)CCCC2)N=C(c2ccccc2)c2ccccc21 | 0.019 µM | 0.041 µM | – | – | – | – | – | – | –
17 | CCCNC(=O)C(CC)(CC)C(=O)N[C@H]1N=C(c2ccccc2)c2ccccc2N(C)C1=O | – | 0.227 µM | – | – | – | – | – | – | –
18 | CC(C)[C@H](O)NC(=O)C1(C(=O)N[C@H]2N=C(c3ccc(C(F)(F)F)cc3)c3ccccc3N(C)C2=O)CCC1 | 0.0067 µM | 0.0011 µM | – | – | – | – | – | – | –
19 | CCCNC(=O)C1(C(=O)N[C@H]2N=C(c3ccccc3)c3ccccc3N(C)C2=O)CCC1 | 0.082 µM | 0.015 µM | – | – | – | – | – | – | –
20 | CC(C)CNC(=O)C1(C(=O)N[C@H]2N=C(c3ccc(C(F)(F)F)cc3)c3ccccc3N(C)C2=O)CCC1 | 0.028 µM | 0.0012 µM | – | – | – | – | – | – | –
21 | CC(C)CNC(=O)C1(C(=O)N[C@@H]2C(=O)N(C)c3ccccc3-c3ccccc32)CCCC1 | 0.0261 µM | 0.003 µM | – | – | – | – | – | – | –
22 | CCNC(=O)C(CC)(CC)C(=O)N[C@H]1N=C(c2ccccc2)c2ccccc2N(C)C1=O | – | 1 µM | – | – | – | – | – | – | –
23 | CC(C)CNC(=O)C1(C(=O)N[C@H]2N=C(c3ccc(C(F)(F)F)cc3)c3ccccc3N(C)C2=O)CCCC1 | 0.0125 µM | 0.002 µM | – | – | – | – | – | – | –
24 | CC(C)CNC(=O)C1(C(=O)N[C@H]2N=C(c3ccccc3)c3ccccc3N(C)C2=O)CCC1 | 0.021 µM | 0.0035 µM | 84 nM | 21.7 mL/min/kg | 42% | 5.3 h | 3.1 L/kg | 0.004 | –
25 | CN1C(=O)[C@@H](NC(=O)C2(C(=O)NCCC3CCCC3)CCC2)c2ccccc2-c2ccccc21 | 0.021 µM | 0.0013 µM | 365 nM | 5 mL/min/kg | 71% | 13.4 h | 2.9 L/kg | 0.002 | –
